In PMC10112521, “High-throughput AR dimerization assay identifies androgen disrupting chemicals and metabolites” (Frontiers in Toxicology, 2023):
“And” between values parts separate entries of the source, which are not always exact repeats. Equal entries are not always repeated. Where two headings read alike, the source gives them in different places.

Columns and labels:
AR2 cells (HepG2-AR2) [1] = test: Alamar Blue (resazurin) post hoc cell viability / cytotoxicity assay in AR2 cells
Method: (§1) For antagonist mode and cytotoxicity data, well-level normalized response (resp) was calculated as: resp=100 * RLU−bval/pval−bval where pval is the median RLU value of the MEC positive control wells (minimum four wells).

human AR [2] = target: T1, human AR (Homo sapiens, UniProt P10275); test: AR2 assay, agonist mode: ligand-dependent AR homodimerization (NanoBiT luciferase complementation) in stable HepG2-AR2 cells; type: cell-based; details: for hill_gw: Hill model gain slope (Hill coefficient); for hill_gw / hill_tp: 0 given where win_model is Constant; for hill_tp: Hill model top (efficacy); for win_model: winning concentration-response model (Constant, Hill, Gain-Loss); for AR2 agonist: activity call, agonist mode;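 as to hill tp: Log2 fold change of luminescence over DMSO vehicle wells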;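 as to max med: Log2 fold change of luminescence over DMSO vehicle wells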
T1 sequence (P10275 1-920) 1: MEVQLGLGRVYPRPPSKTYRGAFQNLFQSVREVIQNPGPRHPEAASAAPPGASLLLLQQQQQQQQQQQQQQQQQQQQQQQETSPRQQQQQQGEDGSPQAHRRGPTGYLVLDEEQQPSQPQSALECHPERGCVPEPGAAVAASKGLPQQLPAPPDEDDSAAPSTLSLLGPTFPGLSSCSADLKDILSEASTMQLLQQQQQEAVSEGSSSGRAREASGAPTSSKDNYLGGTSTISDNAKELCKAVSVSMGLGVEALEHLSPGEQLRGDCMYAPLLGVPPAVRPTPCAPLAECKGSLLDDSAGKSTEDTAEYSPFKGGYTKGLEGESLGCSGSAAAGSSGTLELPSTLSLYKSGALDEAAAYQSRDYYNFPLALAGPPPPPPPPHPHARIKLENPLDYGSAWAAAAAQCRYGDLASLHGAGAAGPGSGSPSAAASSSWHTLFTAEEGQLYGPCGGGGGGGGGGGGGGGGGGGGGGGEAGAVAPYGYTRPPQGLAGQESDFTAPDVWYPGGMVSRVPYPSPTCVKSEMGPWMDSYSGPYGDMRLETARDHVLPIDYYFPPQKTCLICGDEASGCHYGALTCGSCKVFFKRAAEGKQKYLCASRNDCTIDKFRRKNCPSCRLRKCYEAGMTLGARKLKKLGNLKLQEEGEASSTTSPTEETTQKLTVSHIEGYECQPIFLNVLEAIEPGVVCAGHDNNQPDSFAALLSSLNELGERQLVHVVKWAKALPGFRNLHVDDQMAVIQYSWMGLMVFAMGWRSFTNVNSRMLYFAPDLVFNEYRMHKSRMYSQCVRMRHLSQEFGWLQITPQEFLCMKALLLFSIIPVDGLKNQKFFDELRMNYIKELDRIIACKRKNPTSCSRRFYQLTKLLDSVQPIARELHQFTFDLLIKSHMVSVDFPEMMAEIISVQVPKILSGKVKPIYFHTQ
T1 sequence (P10275 1-920) 2: T1 sequence (P10275 1-920) 1

human AR [3] = target: T1, human AR; test: AR2 assay, antagonist mode: disruption of R1881 (10 nM)-induced AR homodimerization in HepG2-AR2 cells; type: cell-based
human AR [4] = target: T1, human AR; test: cell-based; set-up: species or system AR2 cells (HepG2-AR2); NanoLuc complementation AR homodimerization, antagonist mode, loss of agonist-induced luminescence, AC50 by Hill fit
human AR [5] = target: T1, human AR; test: cell-based; set-up: species or system AR2 cells (HepG2-AR2); NanoLuc complementation AR homodimerization, agonist mode, luminescence gain, AC50 by Hill fit
[6] = system: full-length human AR and the receptor interacting domain (RID) of SRC1; set-up: method as in U.S. EPA, 2002b; details: cited from earlier work
[7] = system: human AR (LBD and AF2 domains) and the RID of human SRC2; set-up: method as in U.S. EPA, 2002b; details: activity call, agonist mode, 2 h; invitroDBv3.4 ref U.S. EPA, 2002b; cited from earlier work
AR2 cells (HepG2-AR2) [8] = system: AR2 cells (HepG2-AR2)
Method: as §1

AR = system: AR; set-up: method as in Kleinstreuer et al., 2017; details: cited from earlier work
[9] = spid Viability, sheet antagonist_fits
[10] = spid Viability, sheet antagonist_fits, 0 where win_model is Constant
[11] = sheet agonist_fits, maximum median response
[12] = spid AR_antagonist, sheet antagonist_fits
[13] = spid AR_antagonist, sheet antagonist_fits, 0 where win_model is Constant
[14] = hill_ga, spid=Bgal, antagonist mode, 10 nM agonist stimulus, 18 h, no CYP expressed
[15] = hill_ga, spid=No_RNA, antagonist mode, 10 nM agonist stimulus, 18 h, no CYP expressed
[16] = hill_ga, spid=Bgal, agonist mode, 18 h, no CYP expressed
[17] = hill_ga, spid=No_RNA, agonist mode, 18 h, no CYP expressed
[18] = AR agonist reference class ref Kleinstreuer et al., 2017
[19] = spid=Bgal, antagonist mode, 10 nM agonist stimulus, 18 h, no CYP expressed, read-out: hill_ga (converted)
[20] = activity call, 8 h, single protocol detects agonists and antagonists, invitroDBv3.4 ref U.S. EPA, 2002b
[21] = activity call, 16 h, single protocol detects agonists and antagonists, invitroDBv3.4 ref U.S. EPA, 2002b

Compound | max_med (maximum median response) (AR2 cells (HepG2-AR2) [1]; [9]) | hill_tp (Hill model top) (AR2 cells (HepG2-AR2) [1]; [10]) | hill_gw (human AR [2]; sheet agonist_fits) | hill_tp (human AR [2]; sheet agonist_fits) | max_med (human AR [2]; [11]) | win_model (human AR [2]; sheet agonist_fits) | max_med (maximum median response) (human AR [3]; [12]) | win_model (winning concentration-response model) (human AR [3]; [12]) | hill_gw (Hill model slope) (human AR [3]; [13]) | hill_tp (Hill model top) (human AR [3]; [13]) | AC50 (human AR [4]; [14]) [µM] | AC50 (human AR [4]; [15]) [µM] | AC50 (human AR [5]; [16]) [µM] | UPitt agonist [7] | further results
O=C(c1ccc(O)cc1O)c1ccc(O)cc1O [2,2',4,4'-Tetrahydroxybenzophenone] | 18.7262 | 17.7235 | 3.418 | 2.275 | 2.26 | Gain-Loss | 92.9832 | Hill | 1.5932 | 93.4271 | 9.95 | 10.6 | 9.83 |  | AC50 (human AR [5]; [17]): 9.94 µM
C[C@]12CCC(=O)C[C@@H]1CC[C@@H]1[C@@H]2CC[C@]2(C)[C@@H](O)CC[C@@H]12 [5alpha-Dihydrotestosterone] |  |  |  |  |  |  |  |  |  |  |  |  |  | 0 | hill_tp (Hill model top) (AR2 cells (HepG2-AR2) [1]): 25.0955; max_med (maximum median response) (AR2 cells (HepG2-AR2) [1]): 25.6282; OT 8 hr [6]: 1; OT 16 hr [6]: 1; hill_ga (Hill model log AC50) (AR2 cells (HepG2-AR2) [8]): 1.263; Agonist reference (AR): Moderate
C[C@]12CC[C@@H]3c4ccc(O)cc4CC[C@H]3[C@@H]1CC[C@H]2O [17alpha-Estradiol] | 9.057 | 0 |  |  |  |  |  |  |  |  |  |  |  | 1 | OT 8 hr [6]: 1; OT 16 hr [6]: 1; Agonist reference (AR; [18]): Inactive
CCCCOC(=O)c1ccc(O)cc1 [Butylparaben] | 19.2784 | 11.4715 | 8 | 0.09975 | 0.1079 | Gain-Loss | 51.2671 | Hill | 8 | 52.9514 | 73.1 | 67.8 | 10.4 |  | AC50 (human AR [5]; [17]): 15.3 µM
CCOP(=S)(OCC)Oc1nc(Cl)c(Cl)cc1Cl [Chlorpyrifos] | 11.582 | 0 |  |  | -0.04623 |  | 43.366 | Hill | 1.601 | 66.6083 |  |  |  |  | AC50 (human AR [4]; hill_ga): 32.9 µM and 58.7 µM; AC50 (human AR [5]; hill_ga): > 99.9 µM
C[C@]12CC[C@@H]3c4ccc(O)cc4CC[C@H]3[C@@H]1CCC2=O [Estrone] | 20.7469 | 20.0823 | 0.4978 | 4.258 | 3.757 | Hill | 84.5958 | Hill | 1.278 | 83.5344 |  |  |  |  | AC50 (human AR [4]; [19]): 0.556 µM; AC50 (human AR [4]; spid=No_RNA, antagonist mode, 10 nM agonist stimulus, 18 h, no CYP expressed, read-out: hill_ga (converted)): 0.707 µM; AC50 (human AR [5]; spid=Bgal, agonist mode, 18 h, no CYP expressed, read-out: hill_ga (converted)): 4.32 µM; AC50 (human AR [5]; spid=No_RNA, agonist mode, 18 h, no CYP expressed, read-out: hill_ga (converted)): 2.63 µM
CCCSP(=O)(OCC)SCCC [Ethoprop] | 22.3553 | 18.1513 |  |  |  |  | 30.1172 | Hill | 1.091 | 36.6932 |  |  | > 99.9 |  | max_med (human AR [2]): -0.01755
C[C@]12CC[C@@H]3c4ccc(O)cc4C[C@@H](CCCCCCCCC[S+]([O-])CCCC(F)(F)C(F)(F)F)[C@H]3[C@@H]1CC[C@@H]2O (some centres unmarked) [Fulvestrant] | 0.2489 | 0 |  | 0 | 0.04086 | Constant | 30.2853 | Hill | 0.7802 | 36.6036 |  |  |  | 0 | OT 8 hr [6, 20]: 0; OT 16 hr [6, 21]: 0; AR2 agonist (human AR [2]; 18 h): 0; Agonist reference (AR; [18]): Inactive
N#Cc1ccc(C(c2ccc(C#N)cc2)n2cncn2)cc1 [Letrozole] | 11.0349 | 0 | 3.273 | 5.82 | 6.074 | Gain-Loss | 39.7548 | Hill | 1.809 | 49.9358 |  | 54.9 | > 99.9 |  | 
O=C1C[C@@H](c2ccc(O)cc2)Oc2cc(O)cc(O)c21 [Naringenin] | 0.3009 | 0 | 8 | 0.1206 | 0.1409 | Gain-Loss |  | Hill | 8 |  | 49.8 | 57.7 | > 99.9 |  | hill_tp (Hill model top) (human AR [3]): 38.8754; max_med (maximum median response) (human AR [3]): 37.0321
O=[N+]([O-])c1c(Cl)c(Cl)c(Cl)c(Cl)c1Cl [Pentachloronitrobenzene] | 37.6424 | 16.6244 | 5.807 | 0.296 | 0.2467 | Gain-Loss | 40.8543 | Hill | 8 | 49.0252 |  |  | > 99.9 |  | 
CC(C)=CC1C(C(=O)OCN2C(=O)C3=C(CCCC3)C2=O)C1(C)C (centres unmarked) [Tetramethrin] | 11.4832 | 20.7059 | 4.525 | 0.4941 | 0.4102 | Hill | 7.623 | Hill | 3.974 | 4.695 |  |  |  | 0 | OT 8 hr [6, 20]: 1; OT 16 hr [6, 21]: 1; activity call in agonist mode (human AR [2]; 128-chemical evaluation, 18 h, active = maximal median response >5*bmad): inactive; AR2 agonist (human AR [2]; 18 h): 0; AC50 (human AR [4]; [19]): 43.1 µM; Agonist reference (AR; [18]): Inactive
CCCN(CCC)c1c([N+](=O)[O-])cc(C(F)(F)F)cc1[N+](=O)[O-] [Trifluralin] | 33.7321 | 18.5971 | 0.3 | 0.2593 | 0.1998 | Gain-Loss |  | Hill | 1.383 |  | 52.2 | 47.5 |  |  | hill_tp (Hill model top) (human AR [3]): 55.7657; max_med (maximum median response) (human AR [3]): 39.0604; AC50 (human AR [5]; [17]): > 99.9 µM
